Assay results taken from publication PMC10882719 (Frontiers in Neuroscience, 2024).
Where two headings read alike, the source gives them in different places.

Columns and labels:
Type in all cases: cell-based
168 GPCRs [1] = biological target: T1, 168 GPCRs (Homo sapiens, UniProt O14842)
T1 construct: host or cells: PathHunter cell lines

168 GPCRs [2] = biological target: T2, 168 GPCRs (Homo sapiens, UniProt P18089); settings: ADRA2B
T2 construct: host or cells: PathHunter cell lines
T2 sequence (P18089 1-450): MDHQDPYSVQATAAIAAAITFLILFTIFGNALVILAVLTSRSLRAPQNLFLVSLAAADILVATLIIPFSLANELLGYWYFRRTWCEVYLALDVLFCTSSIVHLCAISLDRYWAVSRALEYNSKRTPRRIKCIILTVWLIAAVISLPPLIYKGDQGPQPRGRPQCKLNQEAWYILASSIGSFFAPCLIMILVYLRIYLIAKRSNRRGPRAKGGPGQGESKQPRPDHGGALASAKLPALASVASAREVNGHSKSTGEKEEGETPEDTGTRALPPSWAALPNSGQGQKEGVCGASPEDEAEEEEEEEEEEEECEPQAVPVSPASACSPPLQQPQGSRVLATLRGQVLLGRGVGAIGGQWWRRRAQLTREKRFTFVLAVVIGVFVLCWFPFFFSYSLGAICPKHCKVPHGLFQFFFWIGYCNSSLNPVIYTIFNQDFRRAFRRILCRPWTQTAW

168 GPCRs [3] = biological target: T3, 168 GPCRs (Homo sapiens, UniProt P35367)
T3 construct: host or cells: PathHunter cell lines

168 GPCRs [4] = biological target: T4, 168 GPCRs (Homo sapiens, UniProt P35372); settings: OPRM1
T4 construct: host or cells: PathHunter cell lines

168 GPCRs [5] = biological target: T5, 168 GPCRs (Homo sapiens, UniProt P41143); settings: OPRD1
T5 construct: host or cells: PathHunter cell lines

168 GPCRs [6] = biological target: T6, 168 GPCRs (Homo sapiens, UniProt P51684)
T6 construct: host or cells: PathHunter cell lines
T6 sequence (P51684 1-374): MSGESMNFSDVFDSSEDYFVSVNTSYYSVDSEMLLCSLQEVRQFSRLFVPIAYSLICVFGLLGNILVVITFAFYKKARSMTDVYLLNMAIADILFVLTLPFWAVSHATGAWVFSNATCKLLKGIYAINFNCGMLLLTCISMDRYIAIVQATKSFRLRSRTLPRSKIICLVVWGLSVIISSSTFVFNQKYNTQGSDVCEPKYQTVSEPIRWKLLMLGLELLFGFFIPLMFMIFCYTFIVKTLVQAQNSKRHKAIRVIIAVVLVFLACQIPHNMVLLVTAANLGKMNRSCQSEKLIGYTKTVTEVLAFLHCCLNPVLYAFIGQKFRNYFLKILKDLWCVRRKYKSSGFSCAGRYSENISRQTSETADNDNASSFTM

168 GPCRs [7] = biological target: T7, 168 GPCRs (Homo sapiens, UniProt Q96P65)
T7 construct: host or cells: PathHunter cell lines
T7 sequence (Q96P65 1-431): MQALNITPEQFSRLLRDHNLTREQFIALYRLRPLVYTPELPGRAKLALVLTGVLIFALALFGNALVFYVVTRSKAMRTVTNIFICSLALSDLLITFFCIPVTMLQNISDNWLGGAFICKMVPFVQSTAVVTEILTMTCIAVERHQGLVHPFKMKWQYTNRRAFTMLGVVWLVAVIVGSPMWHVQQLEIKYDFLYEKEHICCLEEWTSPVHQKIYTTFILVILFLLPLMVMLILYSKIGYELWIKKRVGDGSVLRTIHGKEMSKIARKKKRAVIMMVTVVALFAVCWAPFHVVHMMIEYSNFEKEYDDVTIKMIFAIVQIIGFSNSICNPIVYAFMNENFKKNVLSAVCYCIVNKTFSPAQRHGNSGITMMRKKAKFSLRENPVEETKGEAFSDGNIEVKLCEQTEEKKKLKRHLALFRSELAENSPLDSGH

168 GPCRs [8] = biological target: T8, 168 GPCRs (Homo sapiens, UniProt Q9UKP6); settings: UTR2
T8 construct: host or cells: PathHunter cell lines
T8 sequence (Q9UKP6 1-389): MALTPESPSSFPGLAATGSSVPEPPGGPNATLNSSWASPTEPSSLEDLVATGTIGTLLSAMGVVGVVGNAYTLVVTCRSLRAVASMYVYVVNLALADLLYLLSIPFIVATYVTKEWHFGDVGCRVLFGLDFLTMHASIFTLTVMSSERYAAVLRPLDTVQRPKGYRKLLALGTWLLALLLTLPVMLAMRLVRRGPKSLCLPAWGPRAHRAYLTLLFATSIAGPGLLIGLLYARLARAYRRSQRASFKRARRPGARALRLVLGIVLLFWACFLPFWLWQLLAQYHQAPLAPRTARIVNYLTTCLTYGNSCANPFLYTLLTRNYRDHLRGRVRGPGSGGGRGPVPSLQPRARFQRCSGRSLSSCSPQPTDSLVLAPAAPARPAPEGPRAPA

T1 sequence (O14842 whole entry): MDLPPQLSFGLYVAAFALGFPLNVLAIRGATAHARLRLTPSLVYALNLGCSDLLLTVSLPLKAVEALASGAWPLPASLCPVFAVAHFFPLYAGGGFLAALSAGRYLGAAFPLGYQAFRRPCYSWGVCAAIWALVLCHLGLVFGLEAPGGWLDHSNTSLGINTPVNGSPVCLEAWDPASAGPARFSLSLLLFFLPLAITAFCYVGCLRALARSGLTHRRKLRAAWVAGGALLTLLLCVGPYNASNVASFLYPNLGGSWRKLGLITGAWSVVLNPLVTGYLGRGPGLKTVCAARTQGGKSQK
T4 sequence (P35372 whole entry): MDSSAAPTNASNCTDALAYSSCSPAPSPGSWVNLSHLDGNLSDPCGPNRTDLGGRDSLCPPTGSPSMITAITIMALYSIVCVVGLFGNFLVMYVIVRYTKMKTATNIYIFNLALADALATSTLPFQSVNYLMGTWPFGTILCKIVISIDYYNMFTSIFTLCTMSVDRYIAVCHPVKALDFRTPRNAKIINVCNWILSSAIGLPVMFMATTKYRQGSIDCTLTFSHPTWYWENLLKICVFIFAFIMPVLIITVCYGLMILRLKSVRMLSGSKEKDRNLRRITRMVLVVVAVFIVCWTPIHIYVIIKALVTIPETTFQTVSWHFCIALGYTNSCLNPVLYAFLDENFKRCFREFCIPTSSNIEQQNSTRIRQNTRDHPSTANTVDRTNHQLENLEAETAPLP
T3 sequence (P35367 whole entry): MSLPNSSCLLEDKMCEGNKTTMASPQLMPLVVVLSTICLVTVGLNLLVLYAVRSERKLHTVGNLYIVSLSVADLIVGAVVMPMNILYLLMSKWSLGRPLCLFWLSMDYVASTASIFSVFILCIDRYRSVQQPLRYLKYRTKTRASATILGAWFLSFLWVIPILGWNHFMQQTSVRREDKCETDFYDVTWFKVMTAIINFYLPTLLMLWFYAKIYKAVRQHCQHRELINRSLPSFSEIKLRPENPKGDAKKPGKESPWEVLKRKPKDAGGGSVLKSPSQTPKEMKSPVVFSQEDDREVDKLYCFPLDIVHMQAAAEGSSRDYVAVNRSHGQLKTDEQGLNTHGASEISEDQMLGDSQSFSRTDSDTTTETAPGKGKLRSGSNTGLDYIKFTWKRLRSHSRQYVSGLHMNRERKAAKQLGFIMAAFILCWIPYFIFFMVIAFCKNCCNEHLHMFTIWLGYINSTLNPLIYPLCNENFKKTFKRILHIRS
T5 sequence (P41143 whole entry): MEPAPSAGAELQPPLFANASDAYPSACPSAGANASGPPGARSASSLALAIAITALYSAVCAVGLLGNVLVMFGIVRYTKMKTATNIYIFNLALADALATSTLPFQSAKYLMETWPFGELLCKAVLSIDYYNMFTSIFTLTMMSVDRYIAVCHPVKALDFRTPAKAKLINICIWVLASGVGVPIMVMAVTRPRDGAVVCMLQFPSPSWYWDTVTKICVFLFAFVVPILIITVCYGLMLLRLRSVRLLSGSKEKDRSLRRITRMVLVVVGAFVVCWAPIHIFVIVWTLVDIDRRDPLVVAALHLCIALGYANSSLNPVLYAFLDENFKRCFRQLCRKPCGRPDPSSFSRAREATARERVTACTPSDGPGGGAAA

| Structure (SMILES) | % Agonist Activity (168 GPCRs [1]; FFAR1, 1 uM) [%] | % Antagonist Activity (168 GPCRs [1]; FFAR1, 1 uM) [%] | % Agonist Activity (168 GPCRs [1]; FFAR1, 10 uM) [%] | % Antagonist Activity (168 GPCRs [1]; FFAR1, 10 uM) [%] | % Agonist Activity (168 GPCRs [2]; 1 uM) [%] | % Antagonist Activity (168 GPCRs [2]; 1 uM) [%] | % Agonist Activity (168 GPCRs [2]; 10 uM) [%] | % Antagonist Activity (168 GPCRs [2]; 10 uM) [%] | % Agonist Activity (168 GPCRs [3]; HRH1, 1 uM) [%] | % Antagonist Activity (168 GPCRs [3]; HRH1, 1 uM) [%] | % Agonist Activity (168 GPCRs [3]; HRH1, 10 uM) [%] | % Antagonist Activity (168 GPCRs [3]; HRH1, 10 uM) [%] | % Agonist Activity (168 GPCRs [4]; Conc 1 uM) [%] | % Antagonist Activity (168 GPCRs [4]; Conc 1 uM) [%] | % Agonist Activity (168 GPCRs [4]; Conc 10 uM) [%] | % Antagonist Activity (168 GPCRs [4]; Conc 10 uM) [%] | % Agonist Activity (168 GPCRs [5]; Conc 1 uM) [%] | % Antagonist Activity (168 GPCRs [5]; Conc 1 uM) [%] | % Agonist Activity (168 GPCRs [5]; Conc 10 uM) [%] | % Antagonist Activity (168 GPCRs [5]; Conc 10 uM) [%] | further results |
| --- | --- | --- | --- | --- | --- | --- | --- | --- | --- | --- | --- | --- | --- | --- | --- | --- | --- | --- | --- | --- | --- |
| CNC(C)Cc1ccc2c(c1)OCO2 (stereo not shown) [MDMA, 3,4-Methylenedioxy methamphetamine, reference compound] | 3.9 | -5.6 | 7 | -0.4 | 5.2 | 12.8 | 1.3 | 2.9 | 3.1 | 13.7 | 3.8 | 38.4 | -0.4 | -22.1 | -0.2 | -18.9 | -0.7 | -15.5 | -1.1 | -17.6 | % Agonist Activity (168 GPCRs [6]; CCR6, 1 uM): 1.4%; % Antagonist Activity (168 GPCRs [6]; CCR6, 1 uM): 0%; % Agonist Activity (168 GPCRs [6]; CCR6, 10 uM): 0.7%; % Antagonist Activity (168 GPCRs [6]; CCR6, 10 uM): 0.3%; % Agonist Activity (168 GPCRs [7]; GPR103, 1 uM): -4.2%; % Antagonist Activity (168 GPCRs [7]; GPR103, 1 uM): -15.2%; % Agonist Activity (168 GPCRs [7]; GPR103, 10 uM): -6.5%; % Antagonist Activity (168 GPCRs [7]; GPR103, 10 uM): -17.1%; % Agonist Activity (168 GPCRs [8]; Conc 1 uM): -1.1%; % Antagonist Activity (168 GPCRs [8]; Conc 1 uM): 4.4%; % Agonist Activity (168 GPCRs [8]; Conc 10 uM): -0.1%; % Antagonist Activity (168 GPCRs [8]; Conc 10 uM): 14.3% |
| CNC(C)C(=O)c1ccc2c(c1)OCO2 (stereo not shown) [methylone] | 1.7 | -7.9 | 4.5 | -13.8 | -1 | 8.5 | 1.3 | 6.3 | 3 | -18 | 2.5 | -2.2 | 0.2 | -8 | 0.5 | -18 | -2 | -2.7 | -1.5 | 3.5 | % Agonist Activity (168 GPCRs [6]; CCR6, 1 uM): -2.9%; % Antagonist Activity (168 GPCRs [6]; CCR6, 1 uM): 9.3%; % Agonist Activity (168 GPCRs [6]; CCR6, 10 uM): -3.3%; % Antagonist Activity (168 GPCRs [6]; CCR6, 10 uM): -1.6%; % Agonist Activity (168 GPCRs [7]; GPR103, 1 uM): 0.8%; % Antagonist Activity (168 GPCRs [7]; GPR103, 1 uM): 4.1%; % Agonist Activity (168 GPCRs [7]; GPR103, 10 uM): 3.1%; % Antagonist Activity (168 GPCRs [7]; GPR103, 10 uM): 7%; % Agonist Activity (168 GPCRs [8]; Conc 1 uM): 0.6%; % Antagonist Activity (168 GPCRs [8]; Conc 1 uM): -2.1%; % Agonist Activity (168 GPCRs [8]; Conc 10 uM): 0%; % Antagonist Activity (168 GPCRs [8]; Conc 10 uM): 4.2% |
